Earlier results in patent US7432380B2, “Crystalline form of Fluvastatin sodium” (Ciba Specialty Chemicals Corp., priority 2003, dated 2008).

Settings: relative air humidity of surrounding atmosphere; from WO-A-03/13512

air humidity of atmospheres in which the form is stable: up to 90%
Compound: CC(C)n1c(/C=C/[C@H](O)C[C@H](O)CC(=O)[O-])c(-c2ccc(F)cc2)c2ccccc21.[Na+] [Form F]
